These results are taken from US11568956B2, “Methods for identifying inhibitors of amyloid protein aggregation” (Treventis Corporation, priority 2008, dated 2023).

The target of this test is T1, Aβ 1-40 (Homo sapiens, UniProt P05067).
T1 construct: ThT aggregation assays of Aβ 1-40 and alpha synuclein
T1 sequence (P05067 672-711 limits assumed): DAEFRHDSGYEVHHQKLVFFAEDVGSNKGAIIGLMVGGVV
In words: ThT aggregation assay of Aβ 1-40. It counts as biochemical. The protocol: The anti-amyloid activity of these compounds was evaluated by ThT aggregation assays of Aβ 1-40 and alpha synuclein, as set forth below. The column “A-Syn” below is a functional ThT aggregation assay of alpha synuclein.
As a reminder, the IC50 is the concentration that gives 50% inhibition. A high value points to a need for much substance. On to `COc1ccc2ccccc2c1/C=N/c1ccc(S(N)(=O)=O)cc1`, for which the IC50 is > 20 µM. On the same count and under the same terms, with `O=C(COc1ccccc1)Nc1ccc2c(c1)C(=O)NC2=O` the figure was > 20 µM; with `COc1ccc(N(C)S(=O)(=O)c2ccc(NS(=O)(=O)c3cccs3)cc2)c(OC)c1`, > 20 µM; with `COc1ccccc1N1CCN(C(=O)CN(c2ccc(F)cc2)S(=O)(=O)c2ccccc2)CC1`, > 20 µM. For the compound `CC1=NNC(=O)C1CC(=O)N/N=C/c1cccc(OCc2ccccc2)c1` (stereo not shown), the concentration for half-maximal inhibition (IC50) is > 20 µM.

Turning to `O=C(CNC(=O)c1ccccc1)N/N=C/c1c[nH]nc1-c1ccccc1`, the IC50 was > 20 µM. Same read-out and setting: the result for `CC(C)(O)C#Cc1ccc(C(=O)N2CCN(c3ncccn3)CC2)cc1` reads > 20 µM; that for `CCOC(=O)c1c(NC(=O)c2cccc([N+](=O)[O-])c2C)sc2c1CCC2`, > 20 µM. On the same count and under the same terms, with `Cc1ccc(N(C)C(=O)C2CC(O)CN2C(=O)OCC(C)C)cc1C` (stereo not shown) the figure was > 20 µM; with `Cc1sc(/C=N/NC(=O)c2cccc([N+](=O)[O-])c2)cc1[N+](=O)[O-]`, > 20 µM; with `COc1ccccc1NC(=O)C1CC(O)CN1C(=O)OCc1ccccc1` (stereo not shown), > 20 µM. The same measure, in the same setting: with `COc1ccc(CNCc2ccc(F)cc2)cc1OC` the figure was > 100 µM.

As for `COc1ccc2cc(C(C)N)ccc2c1` (stereo not shown), the 50% inhibitory concentration (IC50) was > 100 µM. Still for that read-out and setting: with `c1ccc2c(c1)CCCC2NCc1ccncc1` (stereo not shown) the figure was > 100 µM. For `COc1ccc(CC(=O)Nc2ccc(S(=O)(=O)Nc3nc(C)cc(C)n3)cc2)cc1`, the IC50 was > 50 µM. Turning to `COc1ccc(NS(=O)(=O)c2ccc(NS(=O)(=O)c3cccs3)cc2)c(OC)c1`, the IC50 is > 50 µM. Take `COc1ccc(NS(=O)(=O)c2ccc(NS(=O)(=O)c3ccc(Br)s3)cc2)c(OC)c1`: the IC50 is > 50 µM. Same read-out and setting: with `COc1ccc(C2(C(=O)Nc3ccc(S(=O)(=O)Nc4ncccn4)cc3)CCCC2)cc1OC` the figure was > 50 µM. Take `O=[N+]([O-])c1ccc(N2CCCCC2)cc1Nc1ccccc1`: the “Aβ - ThT (IC50/μM)” value is listed as “INACTIVE”.
